Measured values published in patent US20260083751A1, “ALLOSTERIC MODULATORS OF ANDROGEN RECEPTOR COACTIVATOR RECRUITMENT FOR CRPC THERAPY” (University of Pittsburgh – Of the Commonwealth System of …, priority 2022, published 2026).
Several values for one entry are separate records, joined by “and”; a condition that tells them apart may be missing. Identical values can stand only once. Like-named read-outs stand apart in the source and are kept apart here.

Legend:
[1] = GI50 given in Tables 4-6 (test not described); type: cell-based; conditions: cell line not stated
[2] = target: T1, AR-LBD PPI interactions with TIF2 and SRC1 coactivators (Homo sapiens, UniProt P10275); test: TIF2 and SRC1 mammalian 2-hybrid assays, results stated jointly; type: cell-based; conditions: for IC50: both M2H assays
T1 construct: AR-LBD amino acids 658-919 expressed as a fusion protein with Gal4-DBD; expressed in transfected cells; host or cells: HEK 293, transient co-transfection
T1 sequence (P10275 659-920): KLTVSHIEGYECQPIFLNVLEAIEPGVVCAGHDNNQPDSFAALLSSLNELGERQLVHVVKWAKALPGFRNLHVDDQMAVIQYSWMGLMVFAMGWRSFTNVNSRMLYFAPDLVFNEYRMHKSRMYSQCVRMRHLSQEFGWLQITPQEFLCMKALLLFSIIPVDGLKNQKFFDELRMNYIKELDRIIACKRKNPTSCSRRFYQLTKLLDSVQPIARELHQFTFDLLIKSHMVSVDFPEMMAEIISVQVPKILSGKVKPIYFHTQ
Excerpt: TIF2 and SRC1 Mammalian 2-Hybrid Assays: The 5×GAL4-TATA-luciferase reporter plasmid was a gift from Dr. Richard Maurer from the Oregon Health and Science University (Gonzalez et al., Cell 1989, 59:675-80), and constructs pGAL4-hAR-658-919 (AR-LBD amino acids 658-919 expressed as a fusion protein with Gal4-DBD) (Askew et al., J Biol Chem 2007, 282:25801-16), pVP16-SRC1 (full-length SRC1 expressed as a fusion with VP16 activation domain) (He et al., J Biol Chem 1999, 274:37219-25) and pVP16-Empty vectors were kindly provided to us by Dr. Elizabeth Wilson, from UNC Chapel Hill. pVP16-TIF2 was generated as described previously (Fancher et al., Assay Drug Dev Technol. 2019, 17:364-386). HEK 293 cells were transiently co-transfected with 5 ng of pGal4-AR-LBD, 10 ng of either pVP16-TIF2 or pVP16-SRC1, and 20 ng of the 5×Gal4-TATA-Luc reporter as described previously (Ibid.). HEK 293 cells were bulk co-transfected with the three plasmids that had been individually incubated with FuGENE® 6 transfection agent (Fugent LLC, Middleton, WI) at a 3:1 ratio for 25 min at room temperature (RT) in serum free media (SFM) and then combined with HEK 293 cells that were suspended in DMEM (Cellgro10013CV) with 2 mM L-glutamine (Invitrogen) that was supplemented with 10% fetal bovine serum, and 5,000 cells in a volume of 40 μL were seeded into the wells of white opaque 384-well assay plates (Greiner Bio-one, #781080) and cultured overnight at 37° C., 5% CO2, and 95% humidity. […] 25 μL of BrightGlo® reagent (Promega, Madison, WI) was added to the plate and the relative luminescence units (RLUs) were captured on a SpectraMax® M5e microtiter plate reader (Molecular Devices, LLC, San Jose, CA).

[3] = target: T2, AR-LBD / TIF2 box III LXXLL peptide (Homo sapiens, UniProt P10275); test: AR-LBD::TIF2 Box III LXXLL peptide binding AlphaScreen assay
T2 construct: The pET28a-AR-LBD (622-919) construct; made in house
T2 sequence (P10275 622-919): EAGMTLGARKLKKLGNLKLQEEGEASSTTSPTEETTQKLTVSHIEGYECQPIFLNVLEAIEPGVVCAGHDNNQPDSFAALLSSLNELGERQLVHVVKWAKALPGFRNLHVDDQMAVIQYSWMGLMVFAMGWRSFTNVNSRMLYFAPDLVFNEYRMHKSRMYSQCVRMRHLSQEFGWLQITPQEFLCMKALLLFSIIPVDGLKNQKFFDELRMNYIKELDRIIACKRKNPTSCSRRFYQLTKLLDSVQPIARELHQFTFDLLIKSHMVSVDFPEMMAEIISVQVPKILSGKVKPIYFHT
Description: […] Biotinylated (Biotin-HN-[…]-CONH2; SEQ ID NO: 1) and non-biotinylated TIF2-box-III (738-756) peptide (H2N-[…]-CONH2; SEQ ID NO: 2) were synthesized by the Peptide & Peptoid Synthesis Facility, at the University of Pittsburgh Health Sciences Core Research Facilities. ALPHAScreen® streptavidin donor beads (SA-DB) and nickel chelate acceptor beads (Ni-AB) were purchased from Perkin Elmer (Waltham, MA). The assay was performed in 384-well white opaque plates (Greiner BioOne, #781080). […] 18 μL of the SA-DB bound biotinylated TIF2 peptide mixture was added to the assay plate before 5 μL of compounds were transferred into assay wells and 27 μL of the AlphaScreen® donor and acceptor B bead mixture was added to the plate. 32 wells containing 0.5% DMSO provided maximum controls and 32 wells containing a 500-fold excess of unlabeled TIF2-box-III (75 μM) were used as minimum controls. The combined head-protein-peptide-compound mixture was incubated for 1 h at room temperature in the dark, and then the RLU's were acquired at 520 nm after excitation at 680 nm on an EnVision® plate reader (Perkin Elmer, Waltham, MA) as described previously (Fancher et al., Assay Drug Dev Technol. 2019, 17:364-386).

[4] = IC50s in TIF2 and SRC-1 M2H assays (potency range in words)
[5] = AlphaScreen, read-out: Inhibition DHT-induced TIF2 NR Box 3 LXXLL peptide binding to AR-LBD IC50
[6] = read-out: IC50 in TIF2 LXXLL-peptide AR-LBD binding assay (potency range in words)
[7] = read-out: IC50s, DHT-induced AR-LBD PPI interactions with TIF2 and SRC1 coactivators

SMILES | GI50 [1] [µM] | Fold difference of M2H IC50s to IC50 for AR-TIF2 PPI disruption [2] [fold] | IC50 [2, 4] [µM] | IC50 [3, 5] | IC50 [3, 6] [µM] | IC50 in TIF2 LXXLL-peptide AR-LBD binding assay (potency range in words) [3] | IC50 [2, 7] [µM] | Fold M2H IC50s less than corresponding AR-TIF2 biosensor IC50s [2] [fold] | Fold lower IC50 for TIF2 than SRC1 ([2]; CoA selectivity) [fold]
Cc1ccccc1-c1cc(O)c2c(c1)CN(c1nc(C(N)=O)cs1)CCO2 [Compound S1-1] | > 100 | ~5 | 1 to 10 | 21 to 83 µM and 12 µM | 10 to 100 |  |  |  | 
Cc1nc(N)cc(N2CCOc3c(O)cc(-c4ccccc4C)cc3C2)n1 [Compound S1-2] | 51.9 |  | 1 to 10 | 21 to 83 µM |  | mid 44 μM |  |  | 
Cc1ccccc1-c1cc(O)c2c(c1)CN(c1nccs1)CCO2 [Compound S1-3] | > 100 |  | 1 to 10 | 21 to 83 µM |  | mid 44 μM |  |  | 
Cc1ccccc1-c1cc(O)c2c(c1)CN(c1cc(N)ncn1)CCO2 [Compound S1-4] | > 100 |  |  |  |  |  |  |  | 
COc1cc(-c2ccc(C)s2)cc2c1OCCN(c1nc(C(N)=O)cs1)C2 [Compound S1-5] | > 100 |  | 10 to 100 | > 100 µM |  |  | 20 to 42 |  | 
Cc1nsc(NC(=O)N2CCC(Sc3ccccc3C)CC2)n1 [Compound S2-6] | > 100 |  | < 1 | 49.5 µM | 10 to 100 |  |  | ~10 | ~5
Cc1nsc(NC(=O)N2CCC(Cn3ccnc3)CC2)n1 [Compound S2-7] | > 100 |  |  |  |  |  |  |  | 
Cc1c(-c2ccccc2F)[nH]c2ccc(CNC(=O)CCc3cn[nH]c3)cc12 [Compound S3-11] | > 100 |  | 1 to 10 | 50 µM and 45.2 µM | 10 to 100 |  | < 10 |  | 
Cc1c(-c2ccccc2F)[nH]c2ccc(CNC(=O)CCc3cnccn3)cc12 [Compound S3-12] | > 100 |  | 1 to 10 | > 100 µM |  |  | < 10 |  | 
CC(=O)NCCC(=O)NCc1ccc2[nH]c(-c3ccccc3F)c(C)c2c1 [Compound S3-13] | > 100 |  | 10 to 100 | 92 µM | 10 to 100 |  | 10 to 20 |  | 
Cc1c(-c2ccccc2F)[nH]c2ccc(CNC(=O)c3ccc(CO)o3)cc12 [Compound S3-14] | > 100 |  | 1 to 10 |  | 10 to 100 |  | < 10 |  | 
Cc1c(-c2ccc(F)cc2)[nH]c2ccc(CNC(=O)c3ccc(CO)o3)cc12 [Compound S3-15] | > 100 |  | 1 to 10 |  | 10 to 100 |  | < 10 |  | 
Cc1cccc2c(-c3ccc(O)c(F)c3)c[nH]c12 [Compound S3-17] | 99 |  | 10 to 100 |  | 1 to 10 |  | 10 to 20 |  | 
CNC(=O)c1ccc(-c2c[nH]c3c(C)cccc23)cc1 [Compound S3-21] | > 100 |  | 10 to 100 | > 100 µM |  |  | 10 to 20 |  | 
